From ChEMBL document CHEMBL4665863 (Bioorg Med Chem, 2020)
Converted amounts (≈) assume the structure as drawn.

Tests used:
Assay type in all cases: functional
Pseudomonas aeruginosa = assay: Antibacterial activity against Pseudomonas aeruginosa ATCC27853 incubated for 24 hrs by CLSI-based broth microdilution method
Escherichia coli = assay: Antibacterial activity against Escherichia coli ATCC25922 incubated for 24 hrs by CLSI-based broth microdilution method; settings: ATCC 25922
Staphylococcus aureus [1] = assay: Antibacterial activity against penicillin-resistant Staphylococcus aureus incubated for 24 hrs by CLSI-based broth microdilution method
Bacillus pumilus = assay: Antibacterial activity against Bacillus pumilus CMCC63202 incubated for 24 hrs by CLSI-based broth microdilution method
Staphylococcus aureus [2] = assay: Antibacterial activity against Staphylococcus aureus ATCC25923 incubated for 24 hrs by CLSI-based broth microdilution method
Staphylococcus aureus [3] = assay: Antibacterial activity against methicillin-resistant Staphylococcus aureus ATCC43300 incubated for 24 hrs by CLSI-based broth microdilution method
Bacillus subtilis = assay: Antibacterial activity against Bacillus subtilis ATCC9372 incubated for 24 hrs by CLSI-based broth microdilution method

| SMILES | MIC (Pseudomonas aeruginosa) | MIC (Escherichia coli) | MIC (Staphylococcus aureus [1]) | MIC (Bacillus pumilus) | MIC (Staphylococcus aureus [2]) | MIC (Staphylococcus aureus [3]) | MIC (Bacillus subtilis) |
| --- | --- | --- | --- | --- | --- | --- | --- |
| COc1ccc(C2=NOC(COc3ccc(F)c(C(N)=O)c3F)C2)cc1 (configuration not stated) | > 64 µg/mL | > 64 µg/mL | > 64 µg/mL | 32 µg/mL (≈ 88.3 µM) | > 64 µg/mL | > 64 µg/mL | 8 µg/mL (≈ 22.1 µM) |
| NC(=O)c1c(F)ccc(OCC2CC(c3ccc(Br)cc3)=NO2)c1F (configuration not stated) | > 64 µg/mL | > 64 µg/mL | 32 µg/mL (≈ 77.8 µM) | 4 µg/mL (≈ 9.73 µM) | 32 µg/mL (≈ 77.8 µM) | 32 µg/mL (≈ 77.8 µM) | 2 µg/mL (≈ 4.86 µM) |
| NC(=O)c1c(F)ccc(OCC2CC(c3ccc(C4CCCCC4)cc3)=NO2)c1F (configuration not stated) | > 64 µg/mL | > 64 µg/mL | > 64 µg/mL | > 64 µg/mL | > 64 µg/mL | > 64 µg/mL | > 64 µg/mL |
| CN(C)c1ccc(C2=NOC(COc3ccc(F)c(C(N)=O)c3F)C2)cc1 (configuration not stated) | > 64 µg/mL | > 64 µg/mL | > 64 µg/mL | 64 µg/mL (≈ 170 µM) | > 64 µg/mL | > 64 µg/mL | 16 µg/mL (≈ 42.6 µM) |
| NC(=O)c1c(F)ccc(OCC2CC(c3ccc(F)cc3)=NO2)c1F (configuration not stated) | > 64 µg/mL | > 64 µg/mL | 64 µg/mL (≈ 183 µM) | 32 µg/mL (≈ 91.4 µM) | 64 µg/mL (≈ 183 µM) | 64 µg/mL (≈ 183 µM) | 8 µg/mL (≈ 22.8 µM) |
| N#Cc1ccc(C2=NOC(COc3ccc(F)c(C(N)=O)c3F)C2)cc1 (configuration not stated) | > 64 µg/mL | > 64 µg/mL | > 64 µg/mL | > 64 µg/mL | > 64 µg/mL | > 64 µg/mL | 32 µg/mL (≈ 89.6 µM) |
| Cc1cccc(C2=NOC(COc3ccc(F)c(C(N)=O)c3F)C2)c1 (configuration not stated) | > 64 µg/mL | > 64 µg/mL | 64 µg/mL (≈ 185 µM) | 8 µg/mL (≈ 23.1 µM) | 32 µg/mL (≈ 92.4 µM) | 16 µg/mL (≈ 46.2 µM) | 16 µg/mL (≈ 46.2 µM) |
| CCCOc1cccc(C2=NOC(COc3ccc(F)c(C(N)=O)c3F)C2)c1 (configuration not stated) | > 64 µg/mL | > 64 µg/mL | 32 µg/mL (≈ 82 µM) | 2 µg/mL (≈ 5.12 µM) | 16 µg/mL (≈ 41 µM) | 16 µg/mL (≈ 41 µM) | 4 µg/mL (≈ 10.2 µM) |
| NC(=O)c1c(F)ccc(OCC2=NOC(c3ccc(Br)cc3)C2)c1F (configuration not stated) | > 64 µg/mL | > 64 µg/mL | > 64 µg/mL | 32 µg/mL (≈ 77.8 µM) | > 64 µg/mL | 32 µg/mL (≈ 77.8 µM) | 8 µg/mL (≈ 19.5 µM) |
| NC(=O)c1c(F)ccc(OCC2CC(c3ccccc3)=NO2)c1F (configuration not stated) | > 64 µg/mL | > 64 µg/mL | > 64 µg/mL | 64 µg/mL (≈ 193 µM) | > 64 µg/mL | > 64 µg/mL | 16 µg/mL (≈ 48.1 µM) |
| CCOc1ccc(C2CC(COc3ccc(F)c(C(N)=O)c3F)=NO2)cc1 (configuration not stated) | > 64 µg/mL | > 64 µg/mL | > 64 µg/mL | 64 µg/mL (≈ 170 µM) | > 64 µg/mL | 64 µg/mL (≈ 170 µM) | 16 µg/mL (≈ 42.5 µM) |
| NC(=O)c1c(F)ccc(OCC2CC(c3ccc(Cl)cc3)=NO2)c1F (configuration not stated) | > 64 µg/mL | > 64 µg/mL | 32 µg/mL (≈ 87.3 µM) | 8 µg/mL (≈ 21.8 µM) | 32 µg/mL (≈ 87.3 µM) | 32 µg/mL (≈ 87.3 µM) | 8 µg/mL (≈ 21.8 µM) |
| COc1ccccc1C1=NOC(COc2ccc(F)c(C(N)=O)c2F)C1 (configuration not stated) | > 64 µg/mL | > 64 µg/mL | > 64 µg/mL | > 64 µg/mL | > 64 µg/mL | > 64 µg/mL | > 64 µg/mL |
| NC(=O)c1c(F)ccc(OCC2=NOC(c3ccc(Cl)cc3)C2)c1F (configuration not stated) | > 64 µg/mL | > 64 µg/mL | 64 µg/mL (≈ 175 µM) | 16 µg/mL (≈ 43.6 µM) | 64 µg/mL (≈ 175 µM) | 32 µg/mL (≈ 87.3 µM) | 4 µg/mL (≈ 10.9 µM) |
| NC(=O)c1c(F)ccc(OCC2=NOC(c3ccc(F)cc3)C2)c1F (configuration not stated) | > 64 µg/mL | > 64 µg/mL | > 64 µg/mL | 64 µg/mL (≈ 183 µM) | > 64 µg/mL | > 64 µg/mL | 16 µg/mL (≈ 45.7 µM) |
| NC(=O)c1c(F)ccc(OCC2CC(c3ccc(Cl)c(Cl)c3)=NO2)c1F (configuration not stated) | > 64 µg/mL | > 64 µg/mL | > 64 µg/mL | > 64 µg/mL | > 64 µg/mL | > 64 µg/mL | 2 µg/mL (≈ 4.99 µM) |

| SMILES | MIC (Pseudomonas aeruginosa) | MIC (Escherichia coli) | MIC (Staphylococcus aureus [1]) | MIC (Bacillus pumilus) | MIC (Staphylococcus aureus [2]) | MIC (Staphylococcus aureus [3]) | MIC (Bacillus subtilis) |
| --- | --- | --- | --- | --- | --- | --- | --- |
| NC(=O)c1c(F)ccc(OCC2CC(c3ccccc3Cl)=NO2)c1F (configuration not stated) | > 64 µg/mL | > 64 µg/mL | > 64 µg/mL | 64 µg/mL (≈ 175 µM) | > 64 µg/mL | > 64 µg/mL | 16 µg/mL (≈ 43.6 µM) |
| CC(C)c1ccc(C2CC(COc3ccc(F)c(C(N)=O)c3F)=NO2)cc1 (configuration not stated) | > 64 µg/mL | > 64 µg/mL | > 64 µg/mL | 8 µg/mL (≈ 21.4 µM) | 64 µg/mL (≈ 171 µM) | 64 µg/mL (≈ 171 µM) | 4 µg/mL (≈ 10.7 µM) |
| Cc1cccc(C2CC(COc3ccc(F)c(C(N)=O)c3F)=NO2)c1 (configuration not stated) | > 64 µg/mL | > 64 µg/mL | > 64 µg/mL | > 64 µg/mL | > 64 µg/mL | > 64 µg/mL | 64 µg/mL (≈ 185 µM) |
| NC(=O)c1c(F)ccc(OCC2CC(c3ccco3)=NO2)c1F (configuration not stated) | > 64 µg/mL | > 64 µg/mL | > 64 µg/mL | > 64 µg/mL | > 64 µg/mL | > 64 µg/mL | 64 µg/mL (≈ 199 µM) |
| NC(=O)c1c(F)ccc(OCC2CC(c3ccc(Cl)cc3Cl)=NO2)c1F (configuration not stated) | > 64 µg/mL | > 64 µg/mL | 32 µg/mL (≈ 79.8 µM) | 2 µg/mL (≈ 4.99 µM) | 16 µg/mL (≈ 39.9 µM) | 32 µg/mL (≈ 79.8 µM) | 4 µg/mL (≈ 9.97 µM) |
| COc1cccc(C2=NOC(COc3ccc(F)c(C(N)=O)c3F)C2)c1 (configuration not stated) | > 64 µg/mL | > 64 µg/mL | > 64 µg/mL | 32 µg/mL (≈ 88.3 µM) | > 64 µg/mL | > 64 µg/mL | 8 µg/mL (≈ 22.1 µM) |
| CCOc1cccc(C2=NOC(COc3ccc(F)c(C(N)=O)c3F)C2)c1 (configuration not stated) | > 64 µg/mL | > 64 µg/mL | 32 µg/mL (≈ 85 µM) | 8 µg/mL (≈ 21.3 µM) | 32 µg/mL (≈ 85 µM) | 32 µg/mL (≈ 85 µM) | 4 µg/mL (≈ 10.6 µM) |
| COc1cccc(C2CC(COc3ccc(F)c(C(N)=O)c3F)=NO2)c1 (configuration not stated) | > 64 µg/mL | > 64 µg/mL | > 64 µg/mL | > 64 µg/mL | > 64 µg/mL | > 64 µg/mL | > 64 µg/mL |
| Cc1ccc(C2CC(COc3ccc(F)c(C(N)=O)c3F)=NO2)cc1 (configuration not stated) | > 64 µg/mL | > 64 µg/mL | > 64 µg/mL | 64 µg/mL (≈ 185 µM) | > 64 µg/mL | > 64 µg/mL | 16 µg/mL (≈ 46.2 µM) |
| NC(=O)c1c(F)ccc(OCC2=NOC(c3ccc(Cl)c(Cl)c3)C2)c1F (configuration not stated) | > 64 µg/mL | > 64 µg/mL | > 64 µg/mL | > 64 µg/mL | > 64 µg/mL | > 64 µg/mL | 16 µg/mL (≈ 39.9 µM) |
| CCOc1cccc(C2CC(COc3ccc(F)c(C(N)=O)c3F)=NO2)c1 (configuration not stated) | > 64 µg/mL | > 64 µg/mL | > 64 µg/mL | > 64 µg/mL | > 64 µg/mL | > 64 µg/mL | 64 µg/mL (≈ 170 µM) |
| CCCCCc1ccc(C2=NOC(COc3ccc(F)c(C(N)=O)c3F)C2)cc1 (configuration not stated) | > 64 µg/mL | > 64 µg/mL | > 64 µg/mL | ≤ 0.125 µg/mL | > 64 µg/mL | > 64 µg/mL | 0.5 µg/mL (≈ 1.24 µM) |
| NC(=O)c1c(F)ccc(OCC2=NOC(c3cccc(Cl)c3)C2)c1F (configuration not stated) | > 64 µg/mL | > 64 µg/mL | > 64 µg/mL | > 64 µg/mL | > 64 µg/mL | > 64 µg/mL | 64 µg/mL (≈ 175 µM) |
| NC(=O)c1c(F)ccc(OCC2CC(c3cccc(Cl)c3)=NO2)c1F (configuration not stated) | > 64 µg/mL | > 64 µg/mL | 32 µg/mL (≈ 87.3 µM) | 8 µg/mL (≈ 21.8 µM) | 16 µg/mL (≈ 43.6 µM) | 32 µg/mL (≈ 87.3 µM) | 2 µg/mL (≈ 5.45 µM) |
| CCc1ccc(C2=NOC(COc3ccc(F)c(C(N)=O)c3F)C2)cc1 (configuration not stated) | > 64 µg/mL | > 64 µg/mL | 16 µg/mL (≈ 44.4 µM) | 2 µg/mL (≈ 5.55 µM) | 8 µg/mL (≈ 22.2 µM) | 8 µg/mL (≈ 22.2 µM) | 0.5 µg/mL (≈ 1.39 µM) |
